25 substances from the OligoGym collection can be followed below.

The target in one data set is MRFAP1. The data set can be described thus: reporter assay of Huesken 2005. Particulars: siRNA. (In general: Reporter assays use an easily measured gene product as a stand-in for the process of interest.)
Another data set concerns the target TMEM63B. As to the kind of experiment: reporter assay of Huesken 2005. Particulars: siRNA.

Oligonucleotides are written 5' to 3', each unit as a sugar letter and its base; * is a phosphorothioate linkage, no mark a phosphodiester; rarer units and linkages stand in square brackets, end groups in braces. Plain capitals give the bases only. Oligonucleotides are given in HELM: sugar(base)linkage, 5' to 3'; d 2'-deoxyribose, r ribose, m 2'-O-methylribose, p phosphate. ss, as = sense and antisense strand; d = 2'-deoxy (DNA); r = 2'-OH (RNA)
Further: test concentration or dose not given here.

On to “sense rUrGrUrUrCrGrUrCrUrGrUrArCrArArGrUrUrGdTdT / antisense rCrArArCrUrUrGrUrArCrArGrArCrGrArArCrAdAdG”, for which, in the data set with MRFAP1, the normalised inhibition (eCFP-eYFP dual reporter) turned out to be 84.8%.

In the data set with MRFAP1, “sense rUrCrGrGrArGrGrArUrUrGrUrArUrUrGrUrUrUdTdT / antisense rArArArCrArArUrArCrArArUrCrCrUrCrCrGrAdCdC” returned a normalised inhibition (eCFP-eYFP dual reporter) of 54.7%.

Regarding “sense rGrGrArCrArGrCrCrUrArArCrUrCrArUrUrUrUdTdT / antisense rArArArArUrGrArGrUrUrArGrGrCrUrGrUrCrCdCdA”, in the data set with MRFAP1, the normalised inhibition (eCFP-eYFP dual reporter) came out at 62.8%.

“sense rUrCrGrCrUrGrArCrGrCrGrCrGrArGrCrGrCrGdTdT / antisense rCrGrCrGrCrUrCrGrCrGrCrGrUrCrArGrCrGrAdCdG” gave a normalised inhibition (eCFP-eYFP dual reporter) in the data set with MRFAP1 of 14%.

On to “sense rUrGrGrArCrArArUrArUrGrCrUrGrArUrCrCrAdTdT / antisense rUrGrGrArUrCrArGrCrArUrArUrUrGrUrCrCrAdTdC”, for which, in the data set with MRFAP1, the normalised inhibition (eCFP-eYFP dual reporter) came to 91.5%.

Turning to “sense rArArCrCrUrGrCrCrUrGrArUrGrArGrUrUrUrGdTdT / antisense rCrArArArCrUrCrArUrCrArGrGrCrArGrGrUrUdAdT”, the normalised inhibition (eCFP-eYFP dual reporter) with MRFAP1 was 52%.

For “sense rUrArCrGrUrUrUrCrUrGrCrUrArUrGrGrUrCrUdTdT / antisense rArGrArCrCrArUrArGrCrArGrArArArCrGrUrAdGdT”, in the data set with MRFAP1, the normalised inhibition (eCFP-eYFP dual reporter) is 62.7%.

In the data set with MRFAP1, “sense rArArArUrArArCrUrUrUrGrArUrUrUrGrGrArAdTdT / antisense rUrUrCrCrArArArUrCrArArArGrUrUrArUrUrUdTdC” yielded a normalised inhibition (eCFP-eYFP dual reporter) of 70.2%.

“sense rCrCrCrCrUrCrUrGrUrCrUrUrCrArCrUrCrUrGdTdT / antisense rCrArGrArGrUrGrArArGrArCrArGrArGrGrGrGdAdA” showed a normalised inhibition (eCFP-eYFP dual reporter) in the data set with MRFAP1 of 87.5%.

Turning to “sense rGrArGrGrUrCrUrUrGrUrUrCrGrUrCrUrGrUrAdTdT / antisense rUrArCrArGrArCrGrArArCrArArGrArCrCrUrCdAdT”, the normalised inhibition (eCFP-eYFP dual reporter) with MRFAP1 was found to be 72.7%.

In turn, “sense rGrGrArGrArUrGrGrCrGrArArGrArUrGrGrCrCdTdT / antisense rGrGrCrCrArUrCrUrUrCrGrCrCrArUrCrUrCrCdTdG” displayed a normalised inhibition (eCFP-eYFP dual reporter) with MRFAP1 of 72.4%.

For “sense rUrArCrArCrGrGrCrUrArGrGrArCrUrGrArUrGdTdT / antisense rCrArUrCrArGrUrCrCrUrArGrCrCrGrUrGrUrAdAdG”, the normalised inhibition (eCFP-eYFP dual reporter) with MRFAP1 was 61.8%.

The substance “sense rGrCrGrCrCrCrGrUrGrCrGrCrArArCrCrGrGrGdTdT / antisense rCrCrCrGrGrUrUrGrCrGrCrArCrGrGrGrCrGrCdGdC” yielded a normalised inhibition (eCFP-eYFP dual reporter) with MRFAP1 of 55.3%.

Consider “sense rUrGrUrUrGrGrGrArCrArGrCrCrUrArArCrUrCdTdT / antisense rGrArGrUrUrArGrGrCrUrGrUrCrCrCrArArCrAdAdA”, for which the normalised inhibition (eCFP-eYFP dual reporter) with MRFAP1 turned out to be 85.6%.

“sense rCrGrGrCrGrGrArArGrUrUrUrUrGrArArGrArCdTdT / antisense rGrUrCrUrUrCrArArArArCrUrUrCrCrGrCrCrGdCdT” returned a normalised inhibition (eCFP-eYFP dual reporter) in the data set with MRFAP1 of 94.8%.

In the data set with MRFAP1, “sense rUrCrUrGrGrUrUrGrArGrUrGrArUrGrGrCrGrAdTdT / antisense rUrCrGrCrCrArUrCrArCrUrCrArArCrCrArGrAdAdT” had a normalised inhibition (eCFP-eYFP dual reporter) of 75.7%.

With “sense rArCrUrUrCrArArGrGrArArGrArGrGrCrGrUrCdTdT / antisense rGrArCrGrCrCrUrCrUrUrCrCrUrUrGrArArGrUdTdT”, the normalised inhibition (eCFP-eYFP dual reporter) with MRFAP1 stood at 82.5%.

Substance “sense rArCrCrUrGrArUrArGrCrUrCrCrCrUrGrArArCdTdT / antisense rGrUrUrCrArGrGrGrArGrCrUrArUrCrArGrGrUdCdA” had a normalised inhibition (eCFP-eYFP dual reporter) in the data set with MRFAP1 of 68.5%.

Turning to “RNA1{r(U)p.r(C)p.r(A)p.r(G)p.r(A)p.r(G)p.r(G)p.r(U)p.r(G)p.r(G)p.r(A)p.r(C)p.r(G)p.r(G)p.r(G)p.r(G)p.r(A)p.r(U)p.r(G)p.d(T)p.d(T)}|RNA2{r(C)p.r(A)p.r(U)p.r(C)p.r(C)p.r(C)p.r(C)p.r(G)p.r(U)p.r(C)p.r(C)p.r(A)p.r(C)p.r(C)p.r(U)p.r(C)p.r(U)p.r(G)p.r(A)p.d(G)p.d(T)}$$$RNA1{StrandType:ss}|RNA2{StrandType:as}$”, the normalised inhibition (eCFP-eYFP dual reporter) with TMEM63B worked out at 29.5%.

In the data set with TMEM63B, “RNA1{r(C)p.r(U)p.r(G)p.r(U)p.r(A)p.r(C)p.r(U)p.r(U)p.r(C)p.r(A)p.r(C)p.r(A)p.r(A)p.r(A)p.r(C)p.r(C)p.r(U)p.r(C)p.r(C)p.d(T)p.d(T)}|RNA2{r(G)p.r(G)p.r(A)p.r(G)p.r(G)p.r(U)p.r(U)p.r(U)p.r(G)p.r(U)p.r(G)p.r(A)p.r(A)p.r(G)p.r(U)p.r(A)p.r(C)p.r(A)p.r(G)p.d(C)p.d(T)}$$$RNA1{StrandType:ss}|RNA2{StrandType:as}$” came in with a normalised inhibition (eCFP-eYFP dual reporter) of 57.4%.

In turn, “RNA1{r(G)p.r(G)p.r(G)p.r(C)p.r(U)p.r(C)p.r(C)p.r(U)p.r(G)p.r(G)p.r(G)p.r(A)p.r(G)p.r(C)p.r(U)p.r(C)p.r(A)p.r(G)p.r(G)p.d(T)p.d(T)}|RNA2{r(C)p.r(C)p.r(U)p.r(G)p.r(A)p.r(G)p.r(C)p.r(U)p.r(C)p.r(C)p.r(C)p.r(A)p.r(G)p.r(G)p.r(A)p.r(G)p.r(C)p.r(C)p.r(C)p.d(C)p.d(A)}$$$RNA1{StrandType:ss}|RNA2{StrandType:as}$” had a normalised inhibition (eCFP-eYFP dual reporter) with TMEM63B of 36.3%.

Regarding “RNA1{r(G)p.r(U)p.r(C)p.r(U)p.r(C)p.r(A)p.r(C)p.r(C)p.r(U)p.r(C)p.r(U)p.r(G)p.r(U)p.r(C)p.r(U)p.r(C)p.r(C)p.r(A)p.r(G)p.d(T)p.d(T)}|RNA2{r(C)p.r(U)p.r(G)p.r(G)p.r(A)p.r(G)p.r(A)p.r(C)p.r(A)p.r(G)p.r(A)p.r(G)p.r(G)p.r(U)p.r(G)p.r(A)p.r(G)p.r(A)p.r(C)p.d(G)p.d(C)}$$$RNA1{StrandType:ss}|RNA2{StrandType:as}$”, the normalised inhibition (eCFP-eYFP dual reporter) with TMEM63B was found to be 88.6%.

For “RNA1{r(C)p.r(C)p.r(U)p.r(G)p.r(A)p.r(A)p.r(G)p.r(G)p.r(A)p.r(C)p.r(U)p.r(U)p.r(C)p.r(A)p.r(A)p.r(C)p.r(G)p.r(U)p.r(G)p.d(T)p.d(T)}|RNA2{r(C)p.r(A)p.r(C)p.r(G)p.r(U)p.r(U)p.r(G)p.r(A)p.r(A)p.r(G)p.r(U)p.r(C)p.r(C)p.r(U)p.r(U)p.r(C)p.r(A)p.r(G)p.r(G)p.d(A)p.d(T)}$$$RNA1{StrandType:ss}|RNA2{StrandType:as}$”, the normalised inhibition (eCFP-eYFP dual reporter) in the data set with TMEM63B was 84.5%.

Consider “RNA1{r(U)p.r(G)p.r(G)p.r(G)p.r(A)p.r(G)p.r(A)p.r(A)p.r(C)p.r(C)p.r(A)p.r(C)p.r(C)p.r(A)p.r(U)p.r(U)p.r(G)p.r(C)p.r(C)p.d(T)p.d(T)}|RNA2{r(G)p.r(G)p.r(C)p.r(A)p.r(A)p.r(U)p.r(G)p.r(G)p.r(U)p.r(G)p.r(G)p.r(U)p.r(U)p.r(C)p.r(U)p.r(C)p.r(C)p.r(C)p.r(A)p.d(A)p.d(A)}$$$RNA1{StrandType:ss}|RNA2{StrandType:as}$”, for which the normalised inhibition (eCFP-eYFP dual reporter) with TMEM63B amounted to 43.8%.

In the data set with TMEM63B, “RNA1{r(G)p.r(C)p.r(C)p.r(U)p.r(A)p.r(C)p.r(C)p.r(A)p.r(U)p.r(G)p.r(A)p.r(U)p.r(C)p.r(A)p.r(A)p.r(C)p.r(C)p.r(C)p.r(C)p.d(T)p.d(T)}|RNA2{r(G)p.r(G)p.r(G)p.r(G)p.r(U)p.r(U)p.r(G)p.r(A)p.r(U)p.r(C)p.r(A)p.r(U)p.r(G)p.r(G)p.r(U)p.r(A)p.r(G)p.r(G)p.r(C)p.d(A)p.d(C)}$$$RNA1{StrandType:ss}|RNA2{StrandType:as}$” displayed a normalised inhibition (eCFP-eYFP dual reporter) of 39.6%.
